“And” between values parts separate entries of the source, which are not always exact repeats. Equal entries are not always repeated.
Tests used:
[1] = tested on: LPS-induced NO production in Raw 264.7 macrophages; experiment: Primary screening: LPS-induced NO production (nitrite, Griess reaction) in Raw 264.7 macrophages; assay type: cell-based, mouse; details: for IC50: Mus musculus, RAW264.7, Raw 264.7 cell line; for Decrease (inhibition) of LPS-induced NO production: at the highest concentration tested; for % inhibition of LPS-induced NO production: at the highest non-cytotoxic concentration tested, nitrite in supernatants; for Effect on LPS-induced NO production / anti-inflammatory activity (in words): non-cytotoxic concentrations
Description: (§1) Raw 264.7 cells were plated at a density of 3 × 10^5 cells/mL and left to stabilize for up to 24 h.
This vehicle was used as control. Lipopolysaccharides from Escherichia coli 026:B6 (LPS; Sigma-Aldrich Co.) were dissolved in phosphate buffered saline (PBS). Recombinant human interleukin-1β (IL-1β; Peprotech, Rocky Hill, NJ, USA) was dissolved in PBS containing 0.1% Bovine Serum Albumin.
NO production was measured as the amount of nitrite accumulated in the culture supernatants using the Griess reaction which is based in the reaction of nitrite with sulfanilamide under acidic conditions, yielding a diazonium ion that couples to N-(1-napthtyl)ethylenediamine dihydrochloride to form a water-soluble red-violet azo dye that absorbs at 550 nm[51]. Briefly, equal volumes of culture supernatants and reagents [equal volumes of 1% (w/v) sulphanilamide in 5% (v/v) phosphoric acid and 0.1% (w/v) N-(1-napthtyl)ethylenediamine dihydrochloride] were mixed and incubated for 10 min, at room temperature, in the dark. The concentration of nitrite accumulated in the culture supernatants was calculated by interpolation of the absorbance of each sample, read in Biotek Synergy HT plate reader (Biotek), in a standard curve of sodium nitrite.

[2] = tested on: Raw 264.7 cells; experiment: Cytotoxicity by resazurin reduction assay in Raw 264.7 cells; assay type: cell-based, mouse; details: viability not decreased by more than 30% relative to LPS alone (ISO 10993-5), LPS 1 µg/mL 18 h
Description: Various concentrations of the test compounds, in the absence or presence of LPS, were first evaluated for cytotoxicity using the resazurin reduction assay[26]
as §1
Resazurin is a redox dye used as an indicator of cellular metabolic activity for various applications, namely cell viability, proliferation and toxicity. The assay is based on the intracellular reduction of the non-fluorescent resazurin to resorufin (a fluorescent and pink coloured compound) by mitochondrial or microsomal enzymes that use NADH or NADPH as electron sources. Since only metabolically active cells can reduce the dye, the increase in fluorescence or absorbance is directly proportional to the number of viable cells[26],[50].
To select non-cytotoxic concentrations of the test compounds, the resazurin solution was added to each well to a final concentration of 50 µM, 90 min before the end of the treatment period indicated in the figure legends. Then, absorbances at 570 nm and 620 nm (reference wavelength) were read in a Biotek Synergy HT plate reader (Biotek, Winooski, VT, USA).

[3] = tested on: NOS2; experiment: LPS-induced NOS2 mRNA (qRT-PCR) and protein (western blot) in Raw 264.7; assay type: cell-based, mouse; details: 1 h pre-treatment, Bay 11-7082 5 μM
Description: Macrophage cultures were treated with 1 µg/mL LPS, for 6 h (a) or 18 h (b), following pre-treatment for 1 h with 666 µM of each test compound (a) or with the concentrations indicated in (b). […] Control cells (Ctrl) were treated with the vehicle (0.1% DMSO) in the absence of LPS. Each column represents the mean ± SEM of four independent experiments. The blots shown are representative of, at least, three independent experiments and are cropped for clarity and conciseness.
Total RNA extraction and qRT-PCR were performed as described before[52]. Briefly, total RNA was extracted using the NZYol (NZYTECH, Lisbon, Portugal) and quantified in a NanoDrop ND-1000 spectrophotometer at 260 nm. RNA purity was assessed by analysis of 260/230 and 260/280 absorption ratios. The cDNA was reverse-transcribed using NZY First Strand cDNA Synthesis Kit (NZYTECH), beginning with 2 µg of total RNA. qRT-PCR was performed, in duplicate for each sample, using NZYSpeedy qPCR Green Master Mix (2×) (NZYTECH) on CFX96 Real-Time PCR Detection System (Bio-Rad, Hercules, CA, USA).
Gene expression changes were analysed using the built-in CFX Manager software which enables the analysis of the results by the Pfaffl method, a variation of the ΔΔCT method corrected for gene-specific efficiencies[53]. The results were normalized using Hprt1 as housekeeping gene.
Total cell extracts were prepared and western blot was performed as described before[54]. Briefly, total (25 µg for Raw 264.7 cell line and 20 µg for human chondrocytes) proteins were separated by SDS-PAGE under reducing conditions and electrotransferred onto PVDF membranes. […] Immune complexes were detected with Enhanced ChemiFluorescence reagent (GE Healthcare) in the imaging system Thyphoon FLA 9000 (GE Healthcare). The membranes were reprobed with a mouse monoclonal anti-β-Tubulin I antibody (Sigma-Aldrich Co.), diluted at 1:20000, as a loading control, for 1 h at room temperature. Image analysis was performed with TotalLab TL120 software (Nonlinear Dynamics Ltd).

[4] = tested on: human chondrocytes; experiment: IL-1β-induced NOS2 protein, NO production and pro-IL-1β protein in primary human chondrocytes; assay type: cell-based; details: IL-1β 10 ng/mL 24 h, carvone 666 or 1331 µM, Bay 11-7082 5 µM
Description: The cells were treated with 10 ng/mL IL-1β for 24 h (a, b, c and d), following pre-treatment for 1 h with 666 or 1331 µM of (S)-(+)-carvone (4). As a positive control, the cells were similarly treated with 5 μM Bay 11-7082 (b and c). Control cells (Ctrl) were treated with the vehicle (0.1% DMSO) in the absence of IL-1β. Each column represents the mean ± SEM of, at least, three independent experiments. The blots shown are representative of, at least, three independent experiments and are cropped for clarity and conciseness.
Briefly, cartilage shavings underwent sequential digestion with Pronase (Roche, Indianapolis, IN, USA) and collagenase A (Roche, Indianapolis, IN, USA). To avoid chondrocyte dedifferentiation, non-proliferating monolayer cultures were setup by plating 1× 10^6 chondrocytes/mL in HAM: F12 medium containing 3% antibiotics and 5% FBS and allowed to recover for 24 h at 37 °C in a humidified atmosphere with 5% CO2. Prior to any treatments, chondrocytes were serum-starved overnight and thereafter maintained in culture medium without FBS.
This vehicle was used as control. […] Recombinant human interleukin-1β (IL-1β; Peprotech, Rocky Hill, NJ, USA) was dissolved in PBS containing 0.1% Bovine Serum Albumin.
Total cell extracts were prepared and western blot was performed as described before[54]. […] Immune complexes were detected with Enhanced ChemiFluorescence reagent (GE Healthcare) in the imaging system Thyphoon FLA 9000 (GE Healthcare). The membranes were reprobed with a mouse monoclonal anti-β-Tubulin I antibody (Sigma-Aldrich Co.), diluted at 1:20000, as a loading control, for 1 h at room temperature. Image analysis was performed with TotalLab TL120 software (Nonlinear Dynamics Ltd).

| IC50 [1] | SMILES | Decrease (inhibition) of LPS-induced NO production ([1]; Raw 264.7) | % inhibition of LPS-induced NO production ([1]; Raw 264.7) | Highest non-cytotoxic concentration tested [2] | Effect on LPS-induced NO production / anti-inflammatory activity (in words) ([1]; Raw 264.7) | also measured |
| --- | --- | --- | --- | --- | --- | --- |
| 1.47 mM and 224 µg/mL | C=C(C)[C@@H]1CCC(C)C(=O)C1 (single isomer, unassigned; (+)) [(+)-dihydrocarvone (7), (+)-dihydrocarvone] | greater than 30% | 73.57 ± 2.81 % ± SEM | 2628 µM and 400 µg/mL | – | – |
| 2 mM and 304 µg/mL | C=C(C)[C@@H]1CC=C(C)C(O)C1 (single isomer, unassigned; (-)) [(−)-carveol (6), (−)-carveol] | greater than 30% | 52.30 ± 5.54 % ± SEM | 2628 µM and 400 µg/mL | – | – |
| – | C=C(C)[C@@H]1CC[C@](C)(O)[C@@H](O)C1 [(1 S,2 S,4 R)-(+)-limonene-1,2-diol (3), (1 S,2 S,4 R)-(+)-limonene-1,2-diol] | less than 20% | 13.90 ± 2.03 % ± SEM | 2349 µM and 400 µg/mL | inactive | – |
| 532 µM and 82.1 µg/mL | C=C(C)[C@H]1CC[C@H](C)[C@@H](O)C1 [(+)-dihydrocarveol (8), (+)-dihydrocarveol] | greater than 30% | 71.03 ± 2.28 % ± SEM | 1297 µM and 200 µg/mL | – | – |
| – | C=C(C)[C@H]1CC[C@H](C)C[C@@H]1O [(+)-isopulegol (10), (+)-isopulegol] | – | −18.47 ± 5.65 % ± SEM | 2593 µM and 400 µg/mL | inactive | Effect on LPS-induced NO production / anti-inflammatory activity (in words) ([1]; Raw 264.7, listed as 10): no effect |
| 842 µM and 142 µg/mL | CC1=CC[C@@H](C(C)(C)O)CC1=O [(R)-8-hydroxycarvotanacetone (21), (R)-5-(2-hydroxypropan-2-yl)-2-methylcyclohex-2-en-1-one] | greater than 30% | 76.25 ± 1.97 % ± SEM | 2378 µM and 400 µg/mL | significant activity | – |
| – | C=C(C)[C@H]1CC=C(C)CC1 [(R)-(+)-limonene (2), (R)-(+)-limonene] | – | −1.80 ± 0.55 % ± SEM | – | inactive | Effect on LPS-induced NO production / anti-inflammatory activity (in words) ([1]; Raw 264.7, listed as 2): no effect |
| – | CC(C)=C1CC[C@@H](C)CC1=O [(R)-(+)-pulegone (12), (R)-(+)-pulegone] | – | 7.80 ± 2.98 % ± SEM | 1314 µM and 200 µg/mL | inactive | Effect on LPS-induced NO production / anti-inflammatory activity (in words) ([1]; Raw 264.7, listed as 12): no effect |
| 762 µM and 116 µg/mL | CC1=CC[C@H](C(C)(C)O)CC1=O [(S)-8-hydroxycarvotanacetone (20), (S)-5-(2-hydroxypropan-2-yl)-2-methylcyclohex-2-en-1-one] | greater than 30% | 78.43 ± 1.60 % ± SEM | 2378 µM and 400 µg/mL | significant activity | – |
| – | C=C(C)[C@@H]1CC=C(C)CC1 [(S)-(−)-limonene (1), (S)-(−)-limonene] | – | 11.08 ± 4.65 % ± SEM | – | inactive | Effect on LPS-induced NO production / anti-inflammatory activity (in words) ([1]; Raw 264.7, listed as 1): no effect |
| – | CC(C)=C1CC[C@H](C)CC1=O [(S)-(−)-pulegone (13), (S)-(−)-pulegone] | – | 35.60 ± 4.86 % ± SEM | 2628 µM and 400 µg/mL | weak activity | – |
| 2.14 mM and 330 µg/mL | C=C(C)[C@@H]1CC[C@@H](C)[C@H](O)C1 [(−)-dihydrocarveol (9), (−)-dihydrocarveol] | greater than 30% | 62.03 ± 8.62 % ± SEM | 2593 µM and 400 µg/mL | – | – |
| – | C=C(C)[C@@H]1CC[C@@H](C)C[C@H]1O [(−)-isopulegol (11), (−)-isopulegol] | – | −12.63 ± 1.30 % ± SEM | 2593 µM and 400 µg/mL | inactive | Effect on LPS-induced NO production / anti-inflammatory activity (in words) ([1]; Raw 264.7, listed as 11): no effect |
| – | CC(C)[C@@H]1CC[C@@H](C)C[C@H]1O [(−)-menthol (15), (−)-menthol] | – | −6.90 ± 1.24 % ± SEM | 2560 µM and 400 µg/mL | no effect | – |
| – | CC(C)[C@@H]1CC[C@@H](C)CC1=O [(−)-menthone (14), (−)-menthone] | – | −9.88 ± 2.85 % ± SEM | 1297 µM and 200 µg/mL | no effect | – |
| – | Cc1ccc(S(=O)(=O)/C=C/C#N)cc1 [Bay 11-7082, reference compound] | – | – | – | – | NO production relative to cells treated with LPS alone ([1]; pre-treatment with 5 μM, Raw 264.7): 48.1 ± 5.2%; LPS-induced NOS2 mRNA levels ([3]; LPS 1 µg/mL 6 h, test compounds 666 µM): decreased; LPS-induced NOS2 protein levels ([3]; LPS 1 µg/mL 18 h): decreased; IL-1β-induced NO production [4]: significantly decreased; IL-1β-induced NOS2 protein levels [4]: significantly decreased |
| – | Cc1ccc(C(C)C)cc1O [carvacrol (18), carvacrol] | less than 20% | 10.78 ± 1.34 % ± SEM | 33 µM and 5 µg/mL | almost no activity | – |
| – | Cc1ccc(C(C)C)cc1 [p-cymene (17), p-cymene] | less than 20% | 8.50 ± 5.53 % ± SEM | 37 µM and 5 µg/mL | showed no activity | – |
| – | Cc1ccc(C(C)C)c(O)c1 [thymol (19), thymol] | less than 20% | 8.93 ± 1.91 % ± SEM | 83 µM and 12.5 µg/mL | showed no activity | – |

Source: publication PMC7190660, “Standardised comparison of limonene-derived monoterpenes identifies structural determinants of anti-inflammatory activity” (Scientific Reports, 2020)
